The numbers were not newly measured in US20230364032A1, “USE OF 2-HOBA TO TREAT ATHEROSCLEROSIS” (Vanderbilt University, priority 2020, published 2023), which cites them from elsewhere.

The subject of series [1] is Apoe−/− mice. The conditions noted are these: cited from earlier work; for effect on atherosclerotic lesions: streptozotocin-treated Apoe−/− mice.
For series [2], the target named is T1, IL-1β (Homo sapiens, UniProt P01584).
T1 construct: host or cells: patients of a clinical trial (endogenous protein)
The conditions noted are these: humans with prior MI and elevated hsCRP; cited from earlier work.

Like-named read-outs stand apart in the source and are kept apart here.

In the case of `Cc1c(C)c2c(c(C)c1O)CC[C@@](C)(CCC[C@H](C)CCC[C@H](C)CCCC(C)C)O2` [alpha tocopherol], in series [1] (Apoe−/− mice), the effect on atherosclerosis result is given as “reduces” and the “effect on urine F2-IsoP levels” value is given as “reduces”.

Regarding `N=C(N)NN` [aminoguanidine], the “effect on atherosclerotic lesions” value in series [1] is “reduce atherosclerotic lesions”.

For the molecule `NCCC(=O)N[C@@H](Cc1cnc[nH]1)C(=O)O` [carnosine], the effect on atherosclerosis result in series [1] (Apoe−/− mice or streptozotocin-treated Apoe−/− mice) is recorded as “reduce atherosclerosis”.

Consider `Cc1ncc(CO)c(CN)c1O` [pyridoxamine], for which the “effect on atherosclerotic lesions” value in series [1] is “reduce atherosclerotic lesions”.

As for “canakinumab: an IL-1β neutralizing monoclonal antibody”, in series [2], the cardiovascular event rates result is listed as “reduce cardiovascular event rates”.
